According to US20260009799A1, “CA-IX TARGETING FLUORESCENT PROBES” (BRACCO IMAGING S.P.A., priority 2022, published 2026):

What was measured:
[1] = molecular target: T1, human serum albumin (HSA) (Homo sapiens, UniProt P02768); assay: Binding to albumin (ultrafiltration, absorbance of filtrates); type: in vitro ADME; settings: 4.76 μM probe in PBS, 10 KDa cut off ultrafiltration, 25° C.; read-out: HSA affinity (KA, M^−1) (converted)
T1 construct: purchased Sigma-Aldrich A9511
Procedure: The affinity of the probes for human serum albumin (HSA) was determined to assess the influence of structural features on their albumin binding properties. Briefly, HSA (A9511, Sigma-Aldrich) was prepared in a […] stock solution in PBS and used to obtain a series of dilutions in PBS (0, 9.52·10^−7, 4.76·10^−6, 9.52·10^−6, 1.90·10^−5, 3.81·10^−5, 5.71·10^−5, 9.52·10^−5, 1.43·10^−4, 1.90·10^−4, 2.86·10^−4, 3.81·10^−4 M), in presence of 4.76 μM of the CA-IX-targeting probe (prepared from a 50 μM stock solution in PBS), in a total volume of 0.525 mL. The samples were centrifuged (10000 g for 30 min at 25° C.) in a Microcon device (10 KDa MW cut off, Amicon Ultra-0.5 Centrifugal Filter Unit with Ultracel-10 membrane) and the absorbance measurements of the filtrates were obtained with the spectrophotometer at the maximum absorbance wavelength of the fluorophore.
Data analysis was performed by fitting the raw data, using Microsoft Excel Solver, with the equation:
where ΔA/b=Absorbance measured (b=1 cm), KRL=KA calculated by fitting, Δε·Rt are calculated by fitting, and [L]=HSA concentration. ΔA/b values were experimentally obtained by subtracting the absorbance of “0 HSA sample” to the absorbance of each other sample.

[2] = system: hypoxic HT-29 colorectal tumor, subcutaneously induced; assay: In vivo tumor optical imaging (IVIS Spectrum), tumor-to-background ratio; set-up: species or system mice; settings: 24 hours after intravenous administration, 1 nmol/mouse, tumor vs hind limb muscle
Procedure: HT-29 cells were collected and washed once with serum-free medium. Five million HT-29 cells were suspended in 0.1 mL serum-free medium and injected subcutaneously in the right flank of 5 weeks old mice. Tumor development was followed by caliper measurement twice a week, from 7 days after inoculation. Tumor volume was calculated according to the formula: (L*W2)/2, where L and W are the maximum length and width of the tumor.
Optical Imaging experiments on HT-29 tumor bearing animals were performed after administration of Reference 1, 2 and 3, and compounds 1 and 2, all at a dose of 1 nmol/mouse in an administration volume of 0.1 mL (corresponding to about 5 mL/kg, considering a 20 g-mouse) at an injection rate of about 1 mL/min, by the IVIS Spectrum system when the tumor reached at least 200 mm^3 volume. For each group, in vivo OI experiments were performed at 0.5, 1, 2, 3, 4, 6 and 24 hours after intravenous administration of the fluorescent compounds. During imaging experiments animals were maintained under gaseous anesthesia. Regions of interest (ROIs) were drawn on the tumor and on a reference background healthy region (hind limb muscle) of the mouse for each fluorescence image at every time point to evaluate signal intensity in the tissues (expressed as Average Radiant Efficiency). The ratio between the fluorescence signal in the tumor and in the background healthy tissue (tumor-to-background ratio, TBR) was then calculated to assess the contrast.
All the compounds of the invention and the References were tested at a dose of 1 nmol/mouse.

[3] = system: HT-29 excised tumors and tissues; assay: Ex vivo biodistribution in excised tumors and organs; set-up: species or system mice; settings: 1 nmol; for Organ-to-muscle ratio, intestine (mean ± SD) / Organ-to-muscle ratio, kidney (mean ± SD) / Organ-to-muscle ratio, liver (mean ± SD) / Organ-to-muscle ratio, skin (mean ± SD) / Organ-to-muscle ratio, spleen (mean ± SD) / Organ-to-muscle ratio, stomach (mean ± SD): ex vivo, 24 hours after administration; for ex vivo TBR (mean ± SD), HT-29 tumor: samples collected 24 hours after administration, tumor vs hind limb muscle
Procedure: The ex vivo biodistribution of the representative compounds 1 and 2 and of the reference compounds (at 1 nmol/mouse) was evaluated in HT-29 excised tumors and tissues at the end of the in vivo OI sessions 24 hours post intravenous administration. At the end of the in vivo experiment, animals were euthanized by overdose of gaseous anesthesia followed by cervical dislocation. Tumor tissue, muscle, and other organs of interest were removed for ex vivo fluorescent signal measurements. The fluorescence signal intensity was measured by the IVIS Spectrum system. Regions of interest (ROIs) were drawn around each organ and tumor using the Living Image Software (PerkinElmer) and evaluating signal intensity in the tissues (expressed as Average Radiant Efficiency). The ratio between the fluorescence signal in the organs and tumor was then calculated to assess the contrast to hind limb muscle (representing the background).

[4] = molecular target: recombinant bovine CA-II enzyme (bCAII) (Bos taurus, UniProt P00921); assay: Fluorescence-based dansylamide (DNSA) displacement assay on carbonic anhydrase catalytic site
[5] = molecular target: T2, CA-IX expressing HT-29 cells (Homo sapiens, UniProt Q16790); assay: Cellular binding assessment by flow cytometry; settings: HT-29 cells, 1 hour 30 min on ice, flow cytometry; read-out: CA-IX receptor affinity (KD, nM to HT-29 cells)
T2 construct: CA-IX, expressed in its physiological environment at the cell-surface; host or cells: HT-29 human colorectal adenocarcinoma cells
Procedure: Human colon adenocarcinoma HT-29 cells (ATCC) used for the cellular binding experiments were cultured in McCoy's 5A medium (Sigma-Aldrich), supplemented with 10% HyClone Fetal Clone III (Euroclone), 2 mM L-glutamine (Sigma-Aldrich), 100 IU/mL penicillin, 0.1 mg/mL streptomycin, 0.25 μg/mL amphotericin B (Antibiotic-Antimycotic solution, Life Technologies) and cells were grown at 37° C. in humidified atmosphere enriched with 5% CO2. DPBS without MgCl2 and CaCl2) (Sigma-Aldrich) was used for cell rinsing.
Indeed, by using the anti-human CA-IX antibody MAB2188 (R&D Systems) and the DAKO […], according to the instruction of the datasheet, HT-29 cells were estimated to express about 150,000 CA-IX molecules per cell. Thus, HT-29 cells were used to measure the binding of all compounds to CA-IX, expressed in its physiological environment at the cell-surface. Briefly, HT-29 cells were detached with StemPro® Accutase® Cell Dissociation Reagent (Life Technologies), collected in DPBS and counted. At least 2·10^5 HT-29 cells were placed in 1.5 mL tubes on ice and resuspended in 50-100 μL of cold FACS buffer (eBioscience™ Flow Cytometry Staining Buffer, Invitrogen) containing scalar concentrations of compounds (HF-1, reference 2, and compound 1: range 0-20 μM; reference 3: range 0-24 μM; compound 2: range 0-10 μM). After incubation (1 hour and 30 min on ice in the dark), cells were rinsed 3 times in 300 μL of cold FACS buffer by centrifugation (5 min, 4° C., 350 RCF), discarding the supernatant. Cell pellets were then resuspended in 200 μL of cold FACS buffer (or in an adequate volume in order to obtain no more than 1000 recorded events per μL during FACS analysis) and analyzed with the flow cytometer Accuri™ C6 (BD Biosciences). The mean cell-associated fluorescence was plotted against concentration and the dissociation constant at equilibrium (KD) was inferred by mathematical fitting with GraphPad Prism v.9 software, according to the following equation: […]
where Bmax is the maximum specific binding in the same units as Y; KD is the equilibrium dissociation constant, in the same units as X; NS is the slope of nonspecific binding in Y units divided by X units; and background is the amount of nonspecific binding with no added Compound.
All compounds were analyzed in at least three independent experiments.

[6] = Optical characterization (excitation/emission maxima, molar extinction coefficient); type: physicochemical
Procedure: A dual-beam UV-VIS spectrophotometer (Lambda 40, Perkin Elmer) was used to determine the absorbance (Abs) of the compounds of the invention. Emission/excitation (Em/Ex) spectra were carried out on a spectrofluorometer (FluoroLog-3 1IHR-320, Horiba Jobin Yvon) equipped with an F-3018 integrating sphere accessory. The measurements were performed using an excitation wavelength at maximum absorbance of different dyes, and the sample was excited with a 450 W Xenon light Source. Detection was performed by photomultiplier tubes (PMT-NIR) cooled detector or by TBX-04 detector. Dye solutions were carefully prepared to have an absorbance lower than 0.1 (optical densities) to minimize re-absorption phenomena.
The compounds of the invention were characterized in terms of their optical properties in vitro in aqueous medium (i.e., water/PBS pH 7.4) and in a clinical chemistry control serum (Seronorm, Sero SA), mimicking the chemical composition and optical properties of human serum. All solutions were freshly prepared. In particular, the compounds of the invention are characterized by absorption maxima comprised in the range from about 750 nm to 780 nm.
The excitation and emission maxima in PBS and Seronorm and the molar extinction coefficient (ε) in water of representative compounds of formula (I) are shown in Table I in comparison with the known CA-IX targeting fluorescent probe named Hypoxyfluor-1 (HF-1, for instance disclosed in Bioconjugate Chem 2018, 29, 3320-3331). […] Moreover, the extinction coefficients were higher than 200,000 mM^−1 cm^−1 for all compounds.

[7] = as above; type: physicochemical; settings: in water
[8] = after injection into the patient; cited from earlier work

T1 sequence (P02768 25-609): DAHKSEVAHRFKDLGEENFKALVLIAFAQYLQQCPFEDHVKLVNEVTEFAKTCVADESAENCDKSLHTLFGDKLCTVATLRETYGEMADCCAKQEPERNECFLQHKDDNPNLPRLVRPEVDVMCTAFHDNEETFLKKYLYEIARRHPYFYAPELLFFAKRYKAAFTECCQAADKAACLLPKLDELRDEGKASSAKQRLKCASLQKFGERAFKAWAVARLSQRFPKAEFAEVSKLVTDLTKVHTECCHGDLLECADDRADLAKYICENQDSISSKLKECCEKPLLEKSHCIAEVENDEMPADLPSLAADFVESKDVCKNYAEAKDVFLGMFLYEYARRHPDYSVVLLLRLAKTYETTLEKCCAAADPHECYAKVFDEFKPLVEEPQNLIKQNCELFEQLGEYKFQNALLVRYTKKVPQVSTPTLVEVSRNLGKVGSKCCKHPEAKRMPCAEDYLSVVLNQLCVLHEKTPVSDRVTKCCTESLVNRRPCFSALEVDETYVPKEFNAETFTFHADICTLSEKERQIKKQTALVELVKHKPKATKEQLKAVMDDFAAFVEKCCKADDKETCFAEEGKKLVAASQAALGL
Chain of recombinant bovine CA-II enzyme (bCAII) (P00921 whole entry): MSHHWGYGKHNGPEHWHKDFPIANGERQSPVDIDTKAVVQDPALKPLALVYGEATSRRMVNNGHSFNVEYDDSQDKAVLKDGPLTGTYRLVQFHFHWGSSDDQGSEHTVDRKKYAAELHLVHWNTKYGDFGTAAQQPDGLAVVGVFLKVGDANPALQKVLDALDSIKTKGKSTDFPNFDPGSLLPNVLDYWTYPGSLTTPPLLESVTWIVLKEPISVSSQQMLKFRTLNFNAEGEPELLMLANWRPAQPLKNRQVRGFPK

Molecule | Kd [1] | in vivo TBR (mean ± SD) [2] | Organ-to-muscle ratio, intestine (mean ± SD) [3] | Organ-to-muscle ratio, kidney (mean ± SD) [3] | Organ-to-muscle ratio, liver (mean ± SD) [3] | Organ-to-muscle ratio, skin (mean ± SD) [3] | Organ-to-muscle ratio, spleen (mean ± SD) [3] | Organ-to-muscle ratio, stomach (mean ± SD) [3] | ex vivo TBR (mean ± SD), HT-29 tumor [3] | Kd [4] | Kd [5] | Max Em (nm, PBS pH 7.4) ([6]; emission maximum, PBS pH 7.4) | Max Em (nm, Seronorm) ([6]; emission maximum, Seronorm control serum) | Max Ex (nm, PBS pH 7.4) ([6]; excitation maximum, PBS pH 7.4) | Max Ex (nm, Seronorm) ([6]; excitation maximum, Seronorm control serum) | molar extinction coefficient (ε) [7] | time after injection to reach tumor/blood ratios suitable for imaging [8]
CC(=O)NC(CCCCn1cc(CCCC(=O)Nc2nnc(S(N)(=O)=O)s2)nn1)C(=O)NCCOCCOCCNC(=O)CCCCCN1/C(=C/C=C2\CCCC(/C=C/C3=[N+](CCCCS(=O)(=O)[O-])c4ccc(C(=O)NC[C@H](O)[C@@H](O)[C@H](O)[C@H](O)CO)cc4C3(C)C)=C2Oc2ccc(S(=O)(=O)O)cc2)C(C)(C)c2cc(C(=O)NC[C@H](O)[C@@H](O)[C@H](O)[C@H](O)CO)ccc21 (stereo partly shown) [Reference 2] | 69900 nM | 3.4 ± 0.6 | 3.0 ± 0.3 | 19.7 ± 2.2 | 6.2 ± 1.3 | 1.7 ± 0.4 | 1.7 ± 0.4 | 6.1 ± 0.7 | 9.2 ± 3.3 | 55.8 ± 1.1 nM | 349 ± 49 nM | – | – | – | – | – | –
CC1(C)C(/C=C/C2=C(Oc3ccc(CCC(=O)NCCCCCCCC(=O)Nc4nnc(S(N)(=O)=O)s4)cc3)C(=C/C=C3/N(CCCCS(=O)(=O)O)c4ccc(S(=O)(=O)O)cc4C3(C)C)/CCC2)=[N+](CCCCS(=O)(=O)[O-])c2ccc(S(=O)(=O)O)cc21 [Reference 1] | 6400 nM | 1.8 ± 0.3 | 2.2 ± 1.3 | 2.4 ± 0.3 | 5.7 ± 0.2 | 1.4 ± 0.0 | 1.4 ± 0.3 | 4.0 ± 1.7 | 3.1 ± 0.3 | – | – | 798 nm | 808 nm | 772 nm | 792 nm | 255000 M⁻¹ cm⁻¹ | –
^124I-cG250: chimeric version of monoclonal antibody G250 labeled with radionuclide 124I | – | – | – | – | – | – | – | – | – | – | – | – | – | – | – | – | 2 to 7 days
CC(=O)NC(CCCCn1cc(CCCC(=O)Nc2nnc(S(N)(=O)=O)s2)nn1)C(=O)NCCOCCOCCNC(=O)CCCCCN1/C(=C/C=C/C=C/C=C/C2=[N+](CCC(C)S(=O)(=O)[O-])c3ccc(C(=O)NC[C@H](O)[C@@H](O)[C@H](O)[C@H](O)CO)cc3C2(C)C)C(C)(C)c2cc(C(=O)NC[C@H](O)[C@@H](O)[C@H](O)[C@H](O)CO)ccc21 (stereo partly shown) [Reference 3] | 24000 nM | 4.7 ± 0.6 | 2.7 ± 0.9 | 15.8 ± 3.4 | 3.6 ± 1.0 | 2.0 ± 0.5 | 1.2 ± 0.3 | 6.7 ± 1.4 | 14.7 ± 2.3 | 30.2 ± 1 nM | 251 ± 44 nM | – | – | – | – | – | –
